# Entries after “also recorded” stand apart in the source; their conditions may differ.
# Tests used:
# CV-1 cells [1] = assay: Actin (phalloidin) fluorescence in CV-1 cells; type: cell-based, monkey; settings: 0.5 μM, 6 hours
# Description: CV-1 cells were obtained from ATCC and grown in chamber slides (Labtek, Campbell, Calif.) for 24 hours in 90% Eagle's MEM with 10% BCS before treatment. […] Cells were then washed in PBS and fixed in 3.7% formaldehyde solution in PBS for 10 minutes at room temperature. Cells were washed again twice in PBS for 5 minutes before incubation with AlexaFluoR488 conjugated phalloidin (1:40 dilution; Molecular Probes, Eugene, Oreg.) and 1% bovine serum albumin (BSA) in PBS at 37° C. for 30 minutes.
# CV-1 cells [2] = assay: Cell morphology, time-lapse imaging of CV-1 cells; type: cell-based, monkey; settings: 500 nM
# Description: CV-1 cells and CHO cells were previously cultured in 2-well chambered cover-slips for 48 hours and incubated in 15 mM HEPES buffer-containing Ham's F-12/DMEM medium with different compounds. The cells were imaged using phase contrast settings with the Nikon TE300 microscope/digital imaging system. The cells were imaged ‘simultaneously’ under control of MetaVue software by capturing frames for cells from different conditions at the same time period using a motorized automated XYZ stage.
# […] […] A very low concentration of Taxol (10 nM) was used.
# CV-1 cells [3] = assay: α-tubulin immunofluorescence, microtubule network in CV-1 cells; type: cell-based, monkey; settings: 0.5 μM, 5 hours
# Description: Before treatment, cells were grown in chamber slides for 24 hours in culture media containing 90% Eagle's MEM and 10% BCS. […] Cells were then washed in PBS and fixed in ice-cold 50/50 methanol/acetone for 10 minutes. […] Sigma, St. Louis, Mo.). Subsequently, slides were washed in PBS, incubated with an AlexaFluoR488-conjugated anti-mouse antibody (Molecular Probes, Eugene, Oreg.) at 37° C. for 30 minutes.
# [4] = tested on: U937 (histiocytic lymphoma); assay: Viability and cell growth of U937 cells; type: cell-based; settings: for Total cells (×10^6): U937, 36 hour treatment
# Description: (§1) The viability and cell growth of two lymphoma cell lines, CRL-2261 (non-Hodgkin's lymphoma) and U937 (histiocytic lymphoma), were assayed following treatment with Compound 1 for 36-48 hours. Viability of the cells was determined using a kit from Molecular Probes (Eugene, Oreg.) that labels live cells green (calcein AM) and dead cells red (ethidium homodimer) according to manufacturer's instructions. Fluorescence of calcein and ethidium homodimer in cells was imaged using standard filters for FITC and Texas Red, respectively, with the Nikon TE300 microscope/digital imaging system.
# [5] = tested on: bovine brain microtubule-associated protein (MAP)-rich tubulin; assay: MAP-Rich Tubulin Polymerization Assay; type: biochemical; settings: 0.5 μM Compound 1 alone or with 3 μM Taxol
# Description: In vitro tubulin polymerization assays were repeated in the presence of microtubule-associated proteins (MAPs). Lyophilized bovine brain microtubule-associated protein (MAP)-rich tubulin and PEM buffer (80 mM Na-PIPES (pH 6.9), 1 mM MgCl2, 1 mM EGTA) were purchased from Cytoskeleton (Denver, Colo.). […] Absorbance at 340 nm was measured every minute for 60 minutes at 37° C. using a Perkin Elmer HTS 7000 spectrophotometer.
# [6] = tested on: CRL-2261 (non-Hodgkin's lymphoma); assay: Viability and cell growth of CRL-2261 cells; type: cell-based; settings: for Total cells (×10^6): CRL-2261, 36 hour treatment; for Total cells (×10^7): CRL-2261, 48 hour treatment
# Description: as §1
# Hsp70 = Hsp70 Western blotting in MDA-435 cells; type: cell-based; settings: 0.5 μM; for percentage change in Hsp70 expression relative to DMSO control: normalized to background and GAPDH
# Description: Calculations of the percentage changes were made by using the automated band analysis tools of the Kodak 1D (v.3.6.3) program. Band intensities were normalized to background and GAPDH.
# MDA-435 breast cancer cells were grown in 100 mm plastic-tissue culture dishes and treated for 6 and 24 hours with 0.5 μM Taxol, Compound 1, Taxol+Compound 1, MG132, ALLN, or DMSO. After treatment, cells were washed in PBS and cell lysates were prepared by adding 100 μL of lysis buffer, which contained 20 mM Tris-HCl (pH 7.5), 150 mM NaCl, 1 mM Na2EDTA, 1 mM EGTA, 1% Triton, 2.5 mM sodium pyrophosphate, 1 mM β-glycerophosphate, 1 mM Na3VO4 and 1 μg/ml leupeptin (Cell Signaling Technology, Beverly, Mass.) supplemented with 1 mM PMSF (Sigma, St. Louis, Mo.) immediately before use, on ice for 1 hour. After scraping, the lysates were cleared by centrifugation at 13,000 RPM for 10 minutes at 4° C. Protein content was determined using a Bradford assay and bovine serum albumin as a standard (Bio-Rad Laboratories, Hercules, Calif.). Samples were solubilized by boiling in SDS sample buffer and subjected to SDS-PAGE. The proteins were subsequently transferred to a PVDF membrane (Bio-Rad, Hercules, Calif.). After blocking with 5% nonfat milk in TBS for 1 hour, the blots were incubated with a mouse monoclonal anti-Hsp70 antibody, which is specific for the inducible form of Hsp70 (Clone C92F3A-5, 1:1000 dilution, Stressgen Biotechnologies Corp., Victoria, B.C., Canada) or a rabbit polyclonal anti-GAPDH antibody (1:2000 dilution, Abcam, Cambridge, Mass.) for 2 hours at room temperature. The horseradish-peroxidase-conjugated secondary antibodies, anti-mouse horse radish peroxidase, (1:2000, Bio-Rad, Hercules, Calif.) and goat anti-rabbit polyclonal horse radish peroxidase (1:2000, Abcam, Cambridge, Mass.)) were diluted in blocking buffer and incubated with the blot for 1 hour at room temperature. The secondary antibodies were detected by enhanced chemiluminescence (ECL, Amersham Biosciences, Piscataway, N.J.) and imaged using a Kodak 440 Image Station.
smiles,measurement,setting,value
CN(NC(=O)CC(=O)NN(C)C(=S)c1ccccc1)C(=S)c1ccccc1 [Compound 1],organization of the actin network,CV-1 cells [1],dramatic alterations in the cells' actin cytoskeletal networks; also recorded: induced the disappearance of cytosolic actin bundles
same,changes in the shape of the cell,"CV-1 cells [2]; CV-1 cell, 4 hours",shrinkage of cell body relative to FIG. 19D
same,changes in the shape of live cells,"CV-1 cells [2]; CV-1 cells, 4 hours",shrinkage of cell bodies
same,beginning of cell shrinkage after treatment,CV-1 cells [2]; non-transfected CV-1 cells,1.5 h
same,organization of the microtubule network,CV-1 cells [3],"dramatic alterations in the cells' microtubule network; also recorded: loss of centrosomal enucleated microtubules, clearing up of microtubules from the cytosol, and coiling up of microtubules around the nucleus and at the cell periphery; also recorded: disruption of the microtubule network"
same,cell death of U937 cells,[4]; 36 hours,less affected
same,Total cells (×10^6),[4]; 500 nM,2.13 ×10^6
same,Total cells (×10^6),[4]; 5000 nM,2.40 ×10^6
same,influence on MAP-enriched tubulin polymerization,[5],does not influence MAP-enriched tubulin polymerization
same,cell death / growth inhibition of CRL-2261 cells,[6]; 36-48 hours,significant cell death of CRL-2261 cells; also recorded: more significantly inhibited than growth of U937 cells
same,Total cells (×10^6),[6]; 500 nM,0.69 ×10^6
same,Total cells (×10^6),[6]; 5000 nM,0.75 ×10^6
same,Total cells (×10^7),[6]; 0.5 nM,1.32 ×10^7
same,Total cells (×10^7),[6]; 5 nM,1.11 ×10^7
same,Total cells (×10^7),[6]; 50 nM,0.26 ×10^7
same,Total cells (×10^7),[6]; 500 nM,0.14 ×10^7
same,Total cells (×10^7),[6]; 5000 nM,0.16 ×10^7
same,induction of Hsp70 expression,Hsp70; 6 and 24 hours,strongly induced Hsp70 expression
same,percentage change in Hsp70 expression relative to DMSO control,Hsp70; 6 hours of treatment,980%
same,percentage change in Hsp70 expression relative to DMSO control,Hsp70; 24 hours of treatment,2121%

# — US20060167106A1, “Compounds acting at the centrosome” (priority 2004, published 2006)
